Measurements taken from patent US20240034753A1, “THERAPEUTIC PEPTIDES” (COHBAR, INC., priority 2020, published 2024).
Square brackets hold non-standard residues; d marks the D form. Peptide text beside a SMILES is read from it. Nle = CCCC[C@H](N)C(=O)O

Assays:
[1] = test system: C2C12 Mouse Myoblasts; assay: Glucose utilization (glucose remaining in medium); type: cell-based; conditions: peptide 10 μM, 18-22 hours, relative to 0.1% DMSO treated control cells
Description: The effect of the peptides on glucose metabolism can be assessed using an assay of glucose utilization in cultured cells such as mouse myoblasts. Peptides were initially prepared as 10 mM stock in DMSO and used at a final concentration of 10 μM (0.1% DMSO). C2C12 mouse myoblast cell line was purchased from American Type Culture Collection (Manassas, VA). C2C12 cultures were maintained at 37° C. in a humidified atmosphere of 5% CO2/95% air with medium changes every second day. C2C12 cells were grown in DMEM (1 g/L glucose) supplemented with 10% FBS with 100 IU/ml penicillin and 100 μg/ml streptomycin. C2C12 cells were seeded at 7,000 cells per well on 96-well plates and cultured to confluence. Once the cell reached confluence the media was changed to DMEM (1 g/L glucose) supplemented with 2% HS with 100 IU/ml penicillin and 100 μg/ml streptomycin and maintained at 37° C. in a humidified atmosphere of 5% CO2/95% air. 5 days post-induction of differentiation fresh DMEM (1 g/L glucose) supplemented with 2% HS with 100 IU/ml penicillin and 100 μg/ml streptomycin was added to cultures. Cells were maintained at 37° C. in a humidified atmosphere of 5% CO2 and 95% air for 5 hours. After 5 hours test peptides at 10 μM or controls (0.5 mM or 1 mM metformin in 1% DMSO) prepared in fresh differentiation medium were added to cells and the cultures were maintained at 37° C. in a humidified atmosphere of 5% CO2/95% air for 18-22 hours. At the end of the incubation culture media was removed from the cells and the remaining glucose concentration was measured using a Glucose Assay kit (Abcam) according to the manufacturer's instructions, using a Cytation 3 plate reader at 570 nm (BioTek, Winooski, VT). Glucose concentrations in the medium were calculated relative to 0.1% DMSO treated control cells. The relative standard deviation of the result for the 0.1% DMSO treated control was <20%. Metformin was used as a positive control for reduction of glucose levels (increased glucose utilization glucose levels for treatment with metformin (1 mM) treatment were <20% of the 0.1% DMSO treated control value. The results are reported in Table 11.

[2] = test system: SH-SY5Y Neuroblastoma Cells Exposed to Staurosporine; assay: ATP levels in cells exposed to staurosporine (CellTiter-Glo); type: cell-based, human; conditions: peptide 10 μM plus staurosporine (40 μM), 18-20 hours; <100% cytoprotective, >100% synergistic
Description: Peptides were initially prepared as 10 mM stock in DMSO and tested at a final concentration of 10 μM (0.1% DMSO). […] […] CellTiter-Glo® Assay kit was purchased from Promega. SH-SY5Y human neuroblastoma cell line was purchased from American Type Culture Collection (Manassas, VA) and licensed from Memorial Sloan-Kettering Cancer Center (New York, NY). SH-SY5Y cells were grown in DMEM/F12 medium supplemented with 10% FBS with 100 IU/ml penicillin and 100 μg/ml streptomycin. Cultures were maintained at 37° C. in a humidified atmosphere of 5% CO2/95% air. SH-SY5Y cells were seeded at 30,000 cells per well on 96-well plates. […] ATP levels were determined using a CellTiter-Glo Assay kit (Promega) according to the manufacturer's instructions. Luminescence for each sample well on the plate was measured using a Cytation 3 plate reader (BioTek, Winooski, VT). […] A value less than 100% is indicative of a cytoprotective effect, while a value greater than 100% is indicative of a synergistic effect on viability.

[3] = test system: A172 human brain glioblastoma cell line; assay: Caspase-Glo 3/7 assay of caspase 3/7 activity in cultured cells; type: cell-based; conditions: peptide 10 μM, 18-20 hours, relative to 0.1% DMSO control
Description: The effect of the peptides on cell death/survival can be assessed using a […] assay in cultured cells. Peptides were dissolved at 10 mM in DMSO as stock solutions for use at a final concentration of 10 μM. […] Caspase-Glo 3/7 Assay Reagent was purchased from Promega (Madison, WI). A172 human brain glioblastoma cell line was purchased from American Type Culture Collection (Manassas, VA). A172 cells were grown in DMEM supplemented with 10% FBS with 100 IU/ml penicillin and 100 μg/ml streptomycin. Cultures were maintained at 37° C. in a humidified atmosphere of 5% CO2/95% air. A172 cells were seeded at 8,000 cells per well on 96-well plates. […] Caspase 3/7 activity was determined using a Caspase-Glo 3/7 Assay kit (Promega) according to the manufacturer's instructions. Luminescence for each sample well on the plate was measured using a Cytation 3 plate reader (BioTek, Winooski, VT). Activity was calculated relative to 0.1% DMSO control.

[4] = test system: SH-SY5Y Neuroblastoma Cells; assay: ATP levels (CellTiter-Glo); type: cell-based, human; conditions: peptide 10 μM, 18-20 hours, relative to 0.1% DMSO treated control
Description: The effect of the peptides on cellular metabolism can be assessed using an assay of ATP levels in cultured cells such as human neuroblastoma cells. Peptides were initially prepared as 10 mM stock in DMSO and used at a final concentration of 10 μM (0.1% DMSO). […] CellTiter-Glo® Assay kit was purchased from Promega. SH-SY5Y human bone marrow neuroblastoma cell line was purchased from American Type Culture Collection (Manassas, VA) and licensed from Memorial Sloan-Kettering Cancer Center (New York, NY). SH-SY5Y cells were grown in DMEM/F12 medium supplemented with 10% FBS with 100 IU/ml penicillin and 100 μg/ml streptomycin. Cultures were maintained at 37° C. in a humidified atmosphere of 5% CO2/95% air. SH-SY5Y cells were seeded at 30,000 cells per well on 96-well plates. […] ATP levels were determined using a CellTiter-Glo Assay kit (Promega) according to the manufacturer's instructions. Luminescence for each sample well on the plate was measured using a Cytation 3 plate reader (BioTek, Winooski, VT). Activity was calculated relative to 0.1% DMSO treated control. The relative standard deviation of the result for the 0.1% DMSO treated control was <5%.

Structure (SMILES) | Glucose Utilization (glucose concentration in medium), Percent of Untreated Control [1] [%] | Percent of ATP Reduction Induced by Control [2] [%] | Caspase 3/7 Activity, Percent of Control Activity [3] [%] | ATP Levels, % Control [4] [%]
CC[C@H](C)[C@H](NC(=O)[C@H](CC(C)C)NC(=O)[C@H](CC(C)C)NC(=O)[C@@H](N)CCSC)C(=O)N[C@@H](CC(C)C)C(=O)N[C@H](C(=O)N[C@@H](CC(C)C)C(=O)N[C@H](C(=O)N[C@@H](CC(C)C)C(=O)N[C@H](C)C(=O)O)C(C)C)[C@@H](C)O [compound 3] (H-MLLILTLVL[dA]-OH; N-terminus and C-terminus assumed) | 105.2 | 102.7 | 90.9 | 104.8
CC[C@H](C)[C@H](NC(=O)[C@H](CC(C)C)NC(=O)[C@H](C)NC(=O)[C@@H](N)CCSC)C(=O)N[C@@H](CC(C)C)C(=O)N[C@H](C(=O)N[C@@H](CC(C)C)C(=O)N[C@H](C(=O)N[C@@H](CC(C)C)C(=O)N[C@H](C)C(=O)O)C(C)C)[C@@H](C)O [compound 4] (H-MALILTLVL[dA]-OH; N-terminus and C-terminus assumed) | 117.2 | 94.0 | 96.4 | 102.2
CC[C@H](C)[C@H](NC(=O)[C@H](CC(C)C)NC(=O)[C@H](C)NC(=O)[C@@H](N)CCSC)C(=O)N[C@@H](CC(=O)O)C(=O)N[C@H](C(=O)N[C@@H](CC(C)C)C(=O)N[C@H](C(=O)N[C@@H](CC(C)C)C(=O)N[C@H](C)C(=O)O)C(C)C)[C@@H](C)O [compound 5] (H-MALIDTLVL[dA]-OH; N-terminus and C-terminus assumed) | 128.8 | 106.1 | 76.2 | 97.1
CC[C@H](C)[C@H](NC(=O)[C@@H](NC(=O)CNC(=O)[C@@H](C)NC(=O)[C@@H](N)CCSC)C(C)C)C(=O)N[C@@H](CCCNC(=N)N)C(=O)NCC(=O)N[C@H](C(=O)N[C@@H](CC(C)C)C(=O)N[C@H](C(=O)N[C@@H](CC(C)C)C(=O)O)C(C)C)C(C)C [compound 9] (H-M[dA]GVIRGVLVL-OH; N-terminus and C-terminus assumed) | 128.4 | 95.1 | 89.3 | 105.9
CC[C@H](C)[C@H](NC(=O)[C@@H](NC(=O)CNC(=O)[C@@H](C)NC(=O)[C@@H](N)CCSC)C(C)C)C(=O)N[C@@H](CCCNC(=N)N)C(=O)N[C@@H](C)C(=O)N[C@H](C(=O)N[C@@H](CC(C)C)C(=O)N[C@H](C(=O)N[C@@H](CC(C)C)C(=O)O)C(C)C)C(C)C [compound 10] (H-M[dA]GVIRAVLVL-OH; N-terminus and C-terminus assumed) | 109.1 | 90.4 | 82.6 | 103.2
CC[C@H](C)[C@H](NC(=O)[C@H](Cc1c[nH]c2ccccc12)NC(=O)[C@H](CCC(N)=O)NC(=O)[C@@H](N)CCCNC(=N)N)C(=O)N[C@@H](CC(C)C)C(=O)N[C@@H](Cc1c[nH]cn1)C(=O)N[C@@H](CC(N)=O)C(=O)N[C@H](C)C(=O)NCC(=O)N[C@@H](CCSC)C(=O)N[C@@H](CO)C(=O)N[C@@H](Cc1ccccc1)C(=O)N[C@@H](Cc1ccccc1)C(=O)N[C@@H](CS)C(=O)O [compound 14] (H-RQWILHN[dA]GMSFFC-OH; N-terminus and C-terminus assumed) | 115.7 | 93.6 | 107.4 | 98.4
CSCC[C@H](NC(=O)CNC(=O)[C@@H](C)NC(=O)[C@H](CC(N)=O)NC(=O)[C@H](Cc1c[nH]cn1)NC(=O)[C@H](CC(C)C)NC(=O)[C@H](CCC(=O)O)NC(=O)[C@H](Cc1c[nH]c2ccccc12)NC(=O)[C@H](CCC(N)=O)NC(=O)[C@@H](N)CCCNC(=N)N)C(=O)N[C@@H](CO)C(=O)N[C@@H](C)C(=O)N[C@@H](Cc1ccccc1)C(=O)N[C@@H](CS)C(=O)O [compound 15] (H-RQWELHN[dA]GMSAFC-OH; N-terminus and C-terminus assumed) | 115.1 | 88.4 | 114.6 | 101.8
CSCC[C@H](NC(=O)[C@H](CCCNC(=N)N)NC(=O)[C@H](CCCNC(=N)N)NC(=O)[C@@H](N)CCCNC(=N)N)C(=O)N[C@@H](Cc1ccccc1)C(=O)N[C@@H](CO)C(=O)N[C@@H](CS)C(=O)N[C@@H](Cc1ccc(O)cc1)C(=O)N[C@H](C)C(=O)N[C@@H](Cc1ccc(O)cc1)C(=O)O [compound 19] (H-RRRMFSCY[dA]Y-OH; N-terminus and C-terminus assumed) | 115.7 | 99.5 | 93.7 | 106.7
CCCC[C@H](NC(=O)[C@H](CCCNC(=N)N)NC(=O)[C@H](CCCNC(=N)N)NC(=O)[C@@H](N)CCCNC(=N)N)C(=O)N[C@@H](Cc1ccccc1)C(=O)N[C@@H](CO)C(=O)N[C@@H](CS)C(=O)N[C@@H](Cc1ccc(O)cc1)C(=O)N[C@H](C)C(=O)N[C@@H](Cc1ccc(O)cc1)C(=O)O [compound 20] (H-RRR[Nle]FSCY[dA]Y-OH; N-terminus and C-terminus assumed) | 113.2 | 101.4 | 85.4 | 106.9
